pIC50: −log10 of the molar value.
Experiments:
PRMT5 [1] = molecular target: T1, PRMT5 (Homo sapiens, UniProt O14744); assay: PRMT5 biochemical IC50 assay with SAM as cofactor; settings: PRMT5, SAM as cofactor; read-out: SAM IC50
T1 construct: purchased Viva (custom protein)

PRMT5 [2] = molecular target: T1, PRMT5; assay: PRMT5 biochemical IC50 assay with no cofactor; settings: PRMT5, no cofactor; read-out: No Cofactor/rel IC50
Text: Table 1 indicates IC50 values (μM) against PRMT5 for exemplary compounds in the presence of SAM as cofactor, with no cofactor, and with MTA as cofactor, respectively (columns 4-6). […] Ki values can be calculated from the IC50 values as described in the Examples section. As detailed in the Examples section, for the assay performed in the presence of SAM, IC50=Ki×1.5 (Ki=IC50/1.5).

PRMT5 [3] = molecular target: T1, PRMT5; assay: PRMT5 biochemical IC50 assay with MTA as cofactor; settings: PRMT5, MTA as cofactor; read-out: MTA IC50
[4] = system: HAP1 MTAP-intact cell line; assay: SDMA in-cell western assay, HAP1 MTAP-intact; assay type: cell-based; settings: Homo sapiens, HAP1, SDMA in-cell western, HAP1 MTAP-intact; read-out: MTAP HAP1 intact IC50
Method in brief: (§1)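 IC50 values come from SDMA signal quantified by in-cell western in two HAP1 lines, one with native MTAP levels and one lacking MTAP.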

[5] = system: HAP1 MTAP-deleted cell line; assay: SDMA in-cell western assay, HAP1 MTAP-deleted; assay type: cell-based; settings: for pIC50: Homo sapiens, HAP1, SDMA in-cell western, HAP1 MTAP-deleted, read-out: HAP 1 MTAP deleted IC50; for MTAP intact/deleted ratio: IC50 ratio HAP1 MTAP-intact / HAP1 MTAP-deleted, SDMA in-cell western
Method in brief: as §1

[6] = system: HAP1 MTAP-deleted cell line; assay: Viability assay, MTAP-deleted cell line; assay type: cell-based; settings: Homo sapiens, HAP1, viability IC50, MTAP-deleted cell line; read-out: HAP1 MTAP deleted viability
Text: Table 1 additionally indicates IC50 values in a viability assay for the MTAP-deleted cell line (column 10), indicating the effect of treatment with compound on cell survival.

T1 sequence (O14744 whole entry): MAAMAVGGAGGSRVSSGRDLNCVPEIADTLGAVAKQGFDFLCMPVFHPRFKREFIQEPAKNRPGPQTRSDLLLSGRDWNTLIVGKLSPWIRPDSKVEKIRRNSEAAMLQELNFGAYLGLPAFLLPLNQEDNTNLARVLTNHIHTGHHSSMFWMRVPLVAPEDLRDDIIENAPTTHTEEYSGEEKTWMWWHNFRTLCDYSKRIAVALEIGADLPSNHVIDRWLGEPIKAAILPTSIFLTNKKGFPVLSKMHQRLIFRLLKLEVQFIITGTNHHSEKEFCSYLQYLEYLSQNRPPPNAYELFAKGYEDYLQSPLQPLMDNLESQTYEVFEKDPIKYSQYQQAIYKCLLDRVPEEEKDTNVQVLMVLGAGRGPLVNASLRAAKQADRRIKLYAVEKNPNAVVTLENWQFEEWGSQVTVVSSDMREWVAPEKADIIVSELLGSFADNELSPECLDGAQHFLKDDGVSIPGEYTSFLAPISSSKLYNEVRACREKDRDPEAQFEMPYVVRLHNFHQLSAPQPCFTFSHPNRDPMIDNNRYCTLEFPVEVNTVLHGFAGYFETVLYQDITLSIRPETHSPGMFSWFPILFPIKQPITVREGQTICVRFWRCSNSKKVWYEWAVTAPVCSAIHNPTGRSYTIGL
T1 sequence (Q9BQA1 whole entry partner): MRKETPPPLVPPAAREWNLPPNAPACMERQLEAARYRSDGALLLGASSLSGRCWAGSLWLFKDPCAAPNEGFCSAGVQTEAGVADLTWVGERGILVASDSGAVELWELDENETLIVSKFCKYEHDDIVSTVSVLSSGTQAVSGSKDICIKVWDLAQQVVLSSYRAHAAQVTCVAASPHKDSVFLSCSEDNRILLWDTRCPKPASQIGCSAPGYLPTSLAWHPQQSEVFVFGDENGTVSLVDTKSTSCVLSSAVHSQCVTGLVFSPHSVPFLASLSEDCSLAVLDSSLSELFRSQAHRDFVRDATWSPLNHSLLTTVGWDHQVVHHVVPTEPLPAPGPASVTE

SMILES	pIC50 (PRMT5 [1])	pIC50 (PRMT5 [2])	pIC50 (PRMT5 [3])	pIC50 [4]	pIC50 [5]	MTAP intact/deleted ratio [5]	pIC50 [6]
Cc1cc(NC(=O)C(=O)N2C[C@H](C)CC[C@H]2c2ccc3c(c2)C(=O)NC3)cnc1N (racemic) [Compound 582, N-(6-amino-5-methyl-3-pyridyl)-2-[(2R,5S)-5-methyl-2-(3-oxoisoindolin-5-yl)-1-piperidyl]-2-oxo-acetamide]	6.30 to 7.30	6.30 to 7.30	6.30 to 7.30	6.00 to 7.00	> 7.00	A (an IC50 ratio greater than or equal to 10 fold)	5.00 to 6.00
C[C@@H]1CC[C@H](c2ccccn2)N(C(=O)C(=O)Nc2cncc(C(N)=O)c2)C1 (racemic) [Compound 584, 5-[[2-[(2R,5R)-5-methyl-2-(2-pyridyl)-1-piperidyl]-2-oxo-acetyl]amino]pyridine-3-carboxamide]	< 6.30	< 6.30	6.30 to 7.30	< 6.00	6.00 to 7.00	A (an IC50 ratio greater than or equal to 10 fold)	< 5.00
C[C@@H]1CC[C@@H](c2ccccc2F)N(C(=O)C(=O)Nc2cncc(C(N)=O)c2)C1 (racemic) [Compound 595, 5-[[2-[(2R,5S)-2-(2-Fluorophenyl)-5-methyl-1-piperidyl]-2-oxo-acetyl]amino]pyridine-3-carboxamide]	6.30 to 7.30	6.30 to 7.30	6.30 to 7.30	< 6.00	> 7.00	A (an IC50 ratio greater than or equal to 10 fold)	5.00 to 6.00
Cc1cc(NC(=O)C(=O)N2C[C@H](C)CC[C@H]2c2cccc(Br)c2)cnc1N (racemic) [Compound 600, N-(6-amino-5-methyl-3-pyridyl)-2-[(2S,5R)-2-(3-bromophenyl)-5-methyl-1-piperidyl]-2-oxo-acetamide]	6.30 to 7.30	6.30 to 7.30	6.30 to 7.30	6.00 to 7.00	> 7.00	A (an IC50 ratio greater than or equal to 10 fold)	> 6.00
C[C@@H]1CC[C@@H](c2cccc(Br)c2)N(C(=O)C(=O)Nc2cncc(C(N)=O)c2)C1 (racemic) [Compound 601, 5-(2-(2-(3-bromophenyl)-5-methylpiperidin-1-yl)-2-oxoacetamido)nicotinamide]	6.30 to 7.30	6.30 to 7.30	6.30 to 7.30	< 6.00	> 7.00	A (an IC50 ratio greater than or equal to 10 fold)	5.00 to 6.00
C[C@@H]1CC[C@@H](c2ccc(O)c(C(C)(C)C)c2)N(C(=O)C(=O)Nc2cncc(C(N)=O)c2)C1 (racemic) [Compound 610, 5-[[2-[(2R,5S)-2-(3-tert-Butyl-4-hydroxy-phenyl)-5-methyl-1-piperidyl]-2-oxo-acetyl]amino]pyridine-3-carboxamide]	6.30 to 7.30	6.30 to 7.30	6.30 to 7.30	< 6.00	> 7.00	A (an IC50 ratio greater than or equal to 10 fold)	5.00 to 6.00
Cc1cc(NC(=O)C(=O)N2C[C@H](C)CC[C@H]2C2CCN(C)CC2)cnc1N (racemic) [Compound 614, N-(6-amino-5-methyl-3-pyridyl)-2-[(2R,5S)-5-methyl-2-(1-methyl-4-piperidyl)-1-piperidyl]-2-oxo-acetamide]	< 6.30	< 6.30	< 6.30	< 6.00	< 6.00	C (an IC50 ratio of less than 3 fold)	< 5.00
Cc1ncc(NC(=O)C(=O)N2C[C@H](C)CC[C@H]2c2ccc(F)cc2)cc1Cl (racemic) [Compound 622, N-(5-chloro-6-methyl-3-pyridyl)-2-[(2S,5R)-2-(4-fluorophenyl)-5-methyl-1-piperidyl]-2-oxo-acetamide]	6.30 to 7.30	6.30 to 7.30	6.30 to 7.30	< 6.00	< 6.00	B (an IC50 ratio greater than or equal to 3 fold but lower than 10 fold)	< 5.00
C[C@@H]1CC[C@@H](c2ccc3[nH]c(=O)[nH]c3c2)N(C(=O)C(=O)Nc2cncc(C(N)=O)c2)C1 (racemic) [Compound 623, rac-5-[[2-[(2R,5S)-5-methyl-2-(2-oxo-1,3-dihydrobenzimidazol-5-yl)-1-piperidyl]-2-oxo-acetyl]amino]pyridine-3-carboxamide]	6.30 to 7.30	6.30 to 7.30	6.30 to 7.30	< 6.00	6.00 to 7.00	A (an IC50 ratio greater than or equal to 10 fold)	< 5.00
Cc1ncc(NC(=O)C(=O)N2C[C@H](C)CC[C@H]2c2ccc3c(c2)CCC(=O)N3)cc1Cl (racemic) [Compound 639, N-(5-Chloro-6-methyl-3-pyridyl)-2-[(2R,5S)-5-methyl-2-(2-oxo-3,4-dihydro-1H-quinolin-6-yl)-1-piperidyl]-2-oxo-acetamide]	6.30 to 7.30	6.30 to 7.30	6.30 to 7.30	< 6.00	> 7.00	A (an IC50 ratio greater than or equal to 10 fold)	5.00 to 6.00
Cc1cc(NC(=O)C(=O)N2CC[C@@H](C)C[C@H]2c2ccccc2)cnc1N (racemic) [Compound 640, N-(6-amino-5-methyl-3-pyridyl)-2-[(2R,4S)-4-methyl-2-phenyl-1-piperidyl]-2-oxo-acetamide]	6.30 to 7.30	6.30 to 7.30	6.30 to 7.30	< 6.00	6.00 to 7.00	A (an IC50 ratio greater than or equal to 10 fold)	5.00 to 6.00

More lines, main results first:

pIC50 (PRMT5 [1])	pIC50 (PRMT5 [2])	pIC50 (PRMT5 [3])	pIC50 [4]	pIC50 [5]	SMILES	MTAP intact/deleted ratio [5]	pIC50 [6]
6.30 to 7.30	6.30 to 7.30	6.30 to 7.30	6.00 to 7.00	> 7.00	Cc1cc(NC(=O)C(=O)N2C[C@H](C)CC[C@H]2c2ccc(-c3ccn[nH]3)s2)cnc1N (racemic) [Compound 556, N-(6-amino-5-methyl-3-pyridyl)-2-[(2R,5S)-5-methyl-2-[5-(1H-pyrazol-5-yl)-2-thienyl]-1-piperidyl]-2-oxo-acetamide]	A (an IC50 ratio greater than or equal to 10 fold)	> 6.00
6.30 to 7.30	6.30 to 7.30	6.30 to 7.30	< 6.00	6.00 to 7.00	Cc1cncc(NC(=O)C(=O)N2C[C@H](C)CC[C@H]2c2ccc(O)cc2)c1 (racemic) [Compound 557, rac-2-((2R,5S)-2-(4-hydroxyphenyl)-5-methylpiperidin-1-yl)-N-(5-methylpyridin-3-yl)-2-oxoacetamide]	A (an IC50 ratio greater than or equal to 10 fold)	< 5.00
6.30 to 7.30	< 6.30	6.30 to 7.30	< 6.00	6.00 to 7.00	COc1ccccc1[C@@H]1CC[C@@H](C)CN1C(=O)C(=O)Nc1cncc(C(N)=O)c1 (racemic) [Compound 558, 5-[[2-[(2S,5R)-2-(2-Methoxyphenyl)-5-methyl-1-piperidyl]-2-oxo-acetyl]amino]pyridine-3-carboxamide]	A (an IC50 ratio greater than or equal to 10 fold)	< 5.00
6.30 to 7.30	6.30 to 7.30	6.30 to 7.30	< 6.00	6.00 to 7.00	C[C@@H]1CC[C@@H](c2cc(F)c(O)c(F)c2)N(C(=O)C(=O)Nc2cncc(C(N)=O)c2)C1 (racemic) [Compound 560, rac-5-[[2-[(2R,5S)-2-(3,5-difluoro-4-hydroxy-phenyl)-5-methyl-1-piperidyl]-2-oxo-acetyl]amino]pyridine-3-carboxamide]	A (an IC50 ratio greater than or equal to 10 fold)	< 5.00
6.30 to 7.30	6.30 to 7.30	6.30 to 7.30	< 6.00	6.00 to 7.00	CNc1ccc([C@@H]2CCC[C@H](C)N2C(=O)C(=O)Nc2cncc(C(N)=O)c2)cn1 (racemic) [Compound 561, 5-[[2-[(2S,6S)-2-methyl-6-[6-(methylamino)-3-pyridyl]-1-piperidyl]-2-oxo-acetyl]amino]pyridine-3-carboxamide]	A (an IC50 ratio greater than or equal to 10 fold)	< 5.00
6.30 to 7.30	6.30 to 7.30	6.30 to 7.30	6.00 to 7.00	> 7.00	Cc1ccc([C@@H]2CC[C@@H](C)CN2C(=O)C(=O)Nc2cnc(N)c(C)c2)cc1O (racemic) [Compound 580, N-(6-amino-5-methylpyridin-3-yl)-2-(2-(3-hydroxy-4-methylphenyl)-5-methylpiperidin-1-yl)-2-oxoacetamide]	A (an IC50 ratio greater than or equal to 10 fold)	> 6.00

— US11999727B2 (Tango Therapeutics, Inc., priority 2020, dated 2024)
